# Experimental data taken from PubChem BioAssay AID2060890 (Molecular Pharmacology Branch, DTP, NCI, 2025).
# System: LG0703-F948-PDC complex spheroid viability
# Assay: Anticancer human tumor LG0703-F948-PDC patient-derived lung adenocarcinoma cell line growth inhibition [RAS]
# Conditions: for IC50: curve of first compound; for viability, T/C: stronger effect = lower value
# Procedure, shortened: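 Tumour cells grown as complex spheroids with HUVEC endothelial cells and mesenchymal stem cells, treated with RAS pathway inhibitor combinations. Each agent spans half-log steps from near clinical Cmax, or 10 microM where Cmax is unknown.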
# [1] = second compound 0.00316 µM, first compound 0.00316 µM
# [2] = second compound 0.00316 µM, first compound 0.01 µM
# [3] = second compound 0.00316 µM, first compound 0.0316 µM
# [4] = second compound 0.00316 µM, first compound 0.1 µM
# [5] = second compound 0.00316 µM, first compound 0.316 µM
# [6] = second compound 0.00316 µM, first compound 1 µM
# [7] = second compound 0.01 µM, first compound 0.00316 µM
# [8] = second compound 0.01 µM, first compound 0.01 µM
# [9] = second compound 0.01 µM, first compound 0.0316 µM
# [10] = second compound 0.01 µM, first compound 0.1 µM
# [11] = second compound 0.01 µM, first compound 0.316 µM
# [12] = second compound 0.01 µM, first compound 1 µM
# [13] = second compound 0.0316 µM, first compound 0.00316 µM
# [14] = second compound 0.0316 µM, first compound 0.01 µM
# [15] = second compound 0.0316 µM, first compound 0.0316 µM
# [16] = second compound 0.0316 µM, first compound 0.1 µM
# [17] = second compound 0.0316 µM, first compound 0.316 µM
# [18] = second compound 0.0316 µM, first compound 1 µM
# [19] = second compound 0.1 µM, first compound 0.00316 µM
# [20] = second compound 0.1 µM, first compound 0.01 µM
# [21] = second compound 0.1 µM, first compound 0.0316 µM
# [22] = second compound 0.1 µM, first compound 0.1 µM
# [23] = second compound 0.1 µM, first compound 0.316 µM
# [24] = second compound 0.1 µM, first compound 1 µM
# [25] = second compound 0.316 µM, first compound 0.00316 µM
# [26] = second compound 0.316 µM, first compound 0.01 µM
# [27] = second compound 0.316 µM, first compound 0.0316 µM
# [28] = second compound 0.316 µM, first compound 0.1 µM
# [29] = second compound 0.316 µM, first compound 0.316 µM
# [30] = second compound 0.316 µM, first compound 1 µM
# [31] = second compound 1 µM, first compound 0.00316 µM
# [32] = second compound 1 µM, first compound 0.01 µM
# [33] = second compound 1 µM, first compound 0.0316 µM
# [34] = second compound 1 µM, first compound 0.1 µM
# [35] = second compound 1 µM, first compound 0.316 µM
# [36] = second compound 1 µM, first compound 1 µM
# 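Note: spheroids exposed to agents for 7 days.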
# 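Throughout, for viability, T/C: 100% = DMSO vehicle wells.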
smiles,measurement,setting,value
C=CC(=O)Nc1cc(Nc2nccc(-c3cn(C)c4ccccc34)n2)c(OC)cc1N(C)CCN(C)C + C=CC(=O)N1CCN(c2nc(OCC3CCCN3C)nc3c(F)c(-c4nc(N)cc(C)c4C(F)(F)F)c(Cl)cc23)C(C)C1,IC50,second compound 0.00316 µM,7.32 nM
same,IC50,second compound 0.01 µM,7.97 nM
same,IC50,second compound 0.0316 µM,8.46 nM
same,IC50,second compound 0.1 µM,8.29 nM
same,IC50,second compound 0.316 µM,7.93 nM
same,IC50,second compound 1 µM,8.3 nM
same,"viability, T/C",[1],75.2%
same,"viability, T/C",[2],40.8%
same,"viability, T/C",[3],16.2%
same,"viability, T/C",[4],14.6%
same,"viability, T/C",[5],10.9%
same,"viability, T/C",[6],8.91%
same,"viability, T/C",[7],79.8%
same,"viability, T/C",[8],42.7%
same,"viability, T/C",[9],16.9%
same,"viability, T/C",[10],9.65%
same,"viability, T/C",[11],8.46%
same,"viability, T/C",[12],7.04%
same,"viability, T/C",[13],79.7%
same,"viability, T/C",[14],45%
same,"viability, T/C",[15],16.2%
same,"viability, T/C",[16],10.3%
same,"viability, T/C",[17],10.2%
same,"viability, T/C",[18],6.08%
same,"viability, T/C",[19],86.3%
same,"viability, T/C",[20],43%
same,"viability, T/C",[21],14.8%
same,"viability, T/C",[22],10.8%
same,"viability, T/C",[23],9.54%
same,"viability, T/C",[24],6.22%
same,"viability, T/C",[25],79.2%
same,"viability, T/C",[26],42.7%
same,"viability, T/C",[27],17.4%
same,"viability, T/C",[28],9.84%
same,"viability, T/C",[29],9.21%
same,"viability, T/C",[30],6.05%
same,"viability, T/C",[31],79.5%
same,"viability, T/C",[32],44.5%
same,"viability, T/C",[33],15.7%
same,"viability, T/C",[34],10.2%
same,"viability, T/C",[35],9.74%
same,"viability, T/C",[36],5.04%
O=C(c1ccc(F)c(F)c1Nc1ccc(I)cc1F)N1CC(O)([C@@H]2CCCCN2)C1 + C=CC(=O)N1CCN(c2nc(OCC3CCCN3C)nc3c(F)c(-c4nc(N)cc(C)c4C(F)(F)F)c(Cl)cc23)C(C)C1,IC50,second compound 0.00316 µM,27.1 nM
same,IC50,second compound 0.01 µM,34 nM
same,IC50,second compound 0.0316 µM,35.6 nM
same,IC50,second compound 0.1 µM,31.7 nM
same,IC50,second compound 0.316 µM,36.3 nM
same,IC50,second compound 1 µM,46 nM
same,"viability, T/C",[1],92.1%
same,"viability, T/C",[2],69.6%
same,"viability, T/C",[3],47.3%
same,"viability, T/C",[4],30.2%
same,"viability, T/C",[5],19.5%
same,"viability, T/C",[6],16.7%
same,"viability, T/C",[7],92.6%
same,"viability, T/C",[8],79.5%
same,"viability, T/C",[9],51.3%
same,"viability, T/C",[10],26.8%
same,"viability, T/C",[11],16.8%
same,"viability, T/C",[12],13.2%
same,"viability, T/C",[13],94.2%
same,"viability, T/C",[14],81.2%
same,"viability, T/C",[15],52.3%
same,"viability, T/C",[16],27.7%
same,"viability, T/C",[17],17.6%
same,"viability, T/C",[18],14.2%
same,"viability, T/C",[19],89.7%
same,"viability, T/C",[20],74.1%
same,"viability, T/C",[21],50.6%
same,"viability, T/C",[22],27.9%
same,"viability, T/C",[23],18.9%
same,"viability, T/C",[24],13.8%
same,"viability, T/C",[25],90.8%
same,"viability, T/C",[26],82.5%
same,"viability, T/C",[27],52.8%
same,"viability, T/C",[28],27%
same,"viability, T/C",[29],19.7%
same,"viability, T/C",[30],17.5%
same,"viability, T/C",[31],99.8%
same,"viability, T/C",[32],92.7%
same,"viability, T/C",[33],58.4%
same,"viability, T/C",[34],30.9%
same,"viability, T/C",[35],23.6%
same,"viability, T/C",[36],18%
